# According to patent US7868006B2, “Heterocyclic substituted piperazines with CXCR3 antagonist activity” (Schering Corporation, priority 2005, dated 2011):
# Molecular target: T1, human CXCR3 (N-delta 4) (Homo sapiens, UniProt P49682)
# T1 construct: CD8 leader (N); Flag tag (N); expressed in transfected cells; host or cells: mouse pro-B Ba/F3 cells, stably transfected with pME18Sneo-hCXCR3 (N-delta 4); membrane preparation
# T1 sequence (P49682 5-368 limits assumed): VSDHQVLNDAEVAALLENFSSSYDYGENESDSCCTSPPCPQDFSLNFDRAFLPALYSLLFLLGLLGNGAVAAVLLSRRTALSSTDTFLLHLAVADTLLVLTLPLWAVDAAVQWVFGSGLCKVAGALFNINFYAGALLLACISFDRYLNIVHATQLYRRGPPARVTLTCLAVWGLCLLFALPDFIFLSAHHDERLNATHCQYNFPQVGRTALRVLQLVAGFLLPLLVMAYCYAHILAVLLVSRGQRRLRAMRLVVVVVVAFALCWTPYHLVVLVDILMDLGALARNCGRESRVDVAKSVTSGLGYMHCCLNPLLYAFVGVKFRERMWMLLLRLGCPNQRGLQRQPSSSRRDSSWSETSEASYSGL
# Test: Human CXCR3 (N-delta 4) Scintillation Proximity Assay (SPA), [125I] IP-10 binding
# Conditions: IC50 rating; Ba/F3-hCXCR3 (N-delta 4) membranes, 25 pM [125I] IP-10; read-out: IC50
# Description: The inventive compounds can readily be evaluated to determine activity at The CXCR3 receptors by known methods, such as, for example, Development of Human CXCR3 (N-delta 4) Binding Assay.
# Cloning and Expression of Human CXCR3 (N-delta 4):
# The DNA encoding human CXCR3 was cloned by PCR using human genomic DNA (Promega, Madison, Wis.) as a template. The PCR primers were designed based on the published sequence of human orphan receptor GPR9 (1) with incorporated restriction sites, a Kozak consensus sequence, CD8 leader and Flag tag. The PCR product was subcloned into the mammalian expression vector pME18Sneo, a derivative of the SR-alpha expression vector (designated as pME18Sneo-hCXCR3 (N-delta 4).
# IL-3-dependent mouse pro-B cells Ba/F3 were transfected by electroporation in 0.4 ml Dulbecco's PBS containing 4×10^6 cells with 20 μg of pME18Sneo-hCXCR3 (N-delta 4) plasmid DNA. Cells were pulsed at 400 Volts, 100 OHMs, 960 μFd. The transfected cells were under selection with 1 mg/ml G418 (Life Technologies, Gaithersburg, Md.). G418-resistant Ba/F3 clones were screened for CXCR3 expression by specific binding of [^125I] IP-10 (NEN Life Science Products, Boston, Mass.).
# Preparation of Ba/F3-hCXCR3 (N-delta 4) Membranes:
# Ba/F3 cells expressing human CXCR3 (N-delta 4) were pelleted and resuspended in the lysis buffer containing 10 mM HEPES, pH 7.5 and Complete® protease inhibitors (1 tablet per 100 ml) (Boehringer Mannheim, Indianapolis, Ind.) at a cell density of 20×10^6 cells per ml. After 5 minutes incubation on ice, cells were transferred to 4639 cell disruption bomb (Parr Instrument, Moline, Ill.) and applied with 1,500 psi of nitrogen for 30 minutes on ice. Large cellular debris was removed by centrifugation at 1,000×g. Cell membrane in the supernatant was sedimented at 100,000×g. The membrane was resuspended in the lysis buffer supplemented with 10% sucrose and stored at −80° C. Total protein concentration of the membrane was determined by BCA method from Pierce (Rockford, Ill.).
# Human CXCR3 (N-delta 4) Scintillation Proximity Assay (SPA):
# For each assay point, 2 μg of membrane was preincubated for 1 hr with 300 μg wheat germ agglutinin (WGA) coated SPA beads (Amersham, Arlington Heights, Ill.) in the binding buffer (50 mM HEPES, 1 mM CaCl2, 5 mM MgCl2, 125 mM NaCl, 0.002% NaN3, 1.0% BSA) at room temperature. The beads were spun down, washed once, resuspended in the binding buffer and transferred to a 96-well Isoplate (Wallac, Gaithersburg, Md.). 25 pM of [^125I] IP-10 with tested compounds in a series of titration were added to start the reaction. After 3 hr reaction at room temperature, the amount of [^125I] IP-10 bound to the SPA beads was determined with a Wallac 1450 Microbeta counter.
# The Ki values for the various example compounds of the present invention are given in the afore-mentioned Table 1. From these values, it would be apparent to the skilled artisan that the compounds of the invention have excellent utility CXCR3 antagonists.
row,SMILES,IC50 [nM]
1,CC[C@H]1CN(c2nc(N)c(-c3nnco3)nc2Cl)CCN1C1CCN(Cc2ccc(Cl)cc2)CC1 [Compound 50],< 25
2,CC[C@H]1CN(c2ncc(-c3nnc(C)[nH]3)nc2Cl)CCN1C1CCN(C(=O)c2ccc(Cl)cc2)CC1 [Compound 51],< 25
3,CC[C@H]1CN(c2nc(N)c(-c3nnc(N)o3)nc2Cl)CCN1C1CCN(C(=O)c2ccc(C#N)cc2)CC1 [Compound 56],< 25
4,CC[C@H]1CN(c2nc(N)c(-c3nnc(C)o3)nc2Cl)CCN1C1CCN(Cc2ccc(Cl)cc2-c2nnn(C)n2)CC1 [Compound 58],< 25
5,CC[C@H]1CN(c2nc(N)c(-c3nnc(C(F)(F)F)o3)nc2Cl)CCN1C1CCN(Cc2ccc(Cl)cc2)CC1 [Compound 59],< 25
6,CC[C@H]1CN(c2ncc(-c3nnc(C)o3)nc2C)CCN1C1CCN(C(=O)c2ccc(F)c(F)c2)CC1 [Compound 63],< 25
7,CC[C@H]1CN(c2ncc(-c3nnc(C)o3)nc2C)CCN1C1CCN(C(=O)c2ccc(C#N)cc2)CC1 [Compound 64],< 25
8,CC[C@H]1CN(c2nc(N)c(-c3nnc(C)o3)nc2Cl)CCN1C1CCN(C(=O)c2ccc(Cl)cc2O)CC1 [Compound 67],< 25
9,CC[C@H]1CN(c2nc(N)c(-c3nnc(N)[nH]3)nc2Cl)CCN1C1CCN(C(=O)c2ccc(Cl)cc2)CC1 [Compound 68],< 25
10,CC[C@H]1CN(c2nc(N)c(-c3nnc(C(N)=O)o3)nc2Cl)CCN1C1CCN(C(=O)c2ccc(Cl)cc2)CC1 [Compound 70],< 25
11,CC[C@H]1CN(c2nc(N)c(-c3nnc(N(C)C)o3)nc2Cl)CCN1C1CCN(C(=O)c2ccc(Cl)nc2N)CC1 [Compound 71],< 25
12,CC[C@H]1CN(c2ncc(-c3nnc(N)o3)nc2C)CCN1C1CCN(C(=O)c2ccc(C(F)(F)F)cc2)CC1 [Compound 72],< 25
13,CC[C@H]1CN(c2nc(N)c(-c3nnc(C(=O)NC4CC4)o3)nc2Cl)CCN1C1CCN(C(=O)c2ccc(Cl)nc2N)CC1 [Compound 73],25 to 100
14,CC[C@H]1CN(c2nc(N)c(-c3nnc(C)o3)nc2Cl)CCN1C1CCN(C(=O)c2ccc(Cl)cc2NC(=O)C(F)(F)F)CC1 [Compound 74],25 to 100
15,CC[C@H]1CN(c2nc(N)c(-c3nnc(NCC(N)=O)o3)nc2Cl)CCN1C1CCN(C(=O)c2ccc(Cl)nc2N)CC1 [Compound 75],25 to 100
16,CC[C@H]1CN(c2nc(N)c(-c3nnc(C(=O)NCC(F)(F)F)o3)nc2Cl)CCN1C1CCN(C(=O)c2ccc(Cl)cc2)CC1 [Compound 77],25 to 100
17,CC[C@H]1CN(c2nc(N)c(-c3nnc(C(F)(F)F)o3)nc2Cl)CCN1C1CCN(C(=O)c2ccc(Cl)cc2)CC1 [Compound 80],> 100
18,CCOC(=O)c1nnc(-c2nc(Cl)c(N3CCN(C4CCN(C(=O)c5ccc(Cl)nc5N)CC4)[C@@H](CC)C3)nc2N)o1 [Compound 81],> 100
19,CC[C@H]1CN(c2nc(N)c(-c3nnc(C)o3)nc2Cl)CCN1C1CCN(C(=O)c2cc(F)c(N)nc2Cl)CC1 [Compound 82],> 100
20,CC[C@H]1CN(c2nc(N)c(-c3n[nH]c(=S)n3C)nc2Cl)CCN1C1CCN(Cc2ccc(Cl)cc2)CC1 [Compound 86],> 100
21,CC[C@H]1CN(c2nc(N)c(-c3n[nH]c(=O)o3)nc2Cl)CCN1C1CCN(Cc2ccc(Cl)cc2)CC1 [Compound 87],> 100
22,CC[C@H]1CN(c2nc(O)c(-c3nnc(C)o3)nc2Cl)CCN1C1CCN(C(=O)c2ccc(Cl)cc2)CC1 [Compound 89],> 100
23,CC[C@H]1CN(c2nc(NC(C)=O)c(-c3nnc(C)o3)nc2Cl)CCN1C1CCN(Cc2ccc(Cl)cc2)CC1 [Compound 90],> 100
24,CCOC(=O)c1nnc(-c2nc(Cl)c(N3CCN(C4CCN(C(=O)c5ccc(Cl)cc5)CC4)[C@@H](CC)C3)nc2N)o1 [Compound 91],> 100
25,CC[C@H]1CN(c2nc(N)c(-c3nnc(C)o3)nc2Cl)CCN1C1CCN(C(=O)c2ccc(Cl)cc2NS(C)(=O)=O)CC1 [Compound 92],> 100
26,CCNc1nnc(-c2nc(Cl)c(N3C[C@H](CC)N(C4CCN(C(=O)c5ccc(Cl)nc5N)CC4)C[C@H]3C)nc2N)o1 [Compound 93],< 25
27,CC[C@H]1CN(c2nc(N)c(-c3nnc(C)o3)nc2Cl)CCN1C1CCN(Cc2cnc(N)nc2)CC1 [Compound 95],> 100
28,CCNc1nnc(-c2cnc(N3C[C@H](CC)N(C4CCN(C(=O)c5ccc(Cl)nc5N)CC4)C[C@H]3C)c(C)n2)o1 [Compound 97],< 25

# Other lines, results leading:
row,IC50 [nM],SMILES
1,< 25,CC[C@H]1CN(c2nc(N)c(-c3nnc(C4CC4)o3)nc2Cl)CCN1C1CCN(C(=O)c2ccc(Cl)nc2N)CC1 [Compound 52]
2,< 25,CC[C@H]1CN(c2ncc(-c3nnc(C)[nH]3)nc2C)CCN1C1CCN(C(=O)c2ccc(Cl)cc2)CC1 [Compound 53]
3,< 25,CC[C@H]1CN(c2nc(F)c(-c3nnc(C)o3)nc2Cl)CCN1C1CCN(C(=O)c2ccc(Cl)cc2)CC1 [Compound 54]
4,< 25,CC[C@H]1CN(c2nc(N)c(-c3nnc(C)o3)nc2Cl)CCN1C1CCN(Cc2ccc(Cl)cc2-c2nnn[nH]2)CC1 [Compound 55]
5,< 25,CC[C@H]1CN(c2nc(N)c(-c3nnc(C)o3)nc2Cl)CCN1C1CCN(C(=O)c2ccc(Cl)nc2)CC1 [Compound 57]
6,< 25,CCO/C=N\c1nc(N2CCN(C3CCN(Cc4ccc(Cl)cc4)CC3)[C@@H](CC)C2)c(Cl)nc1-c1nnco1 [Compound 60]
7,< 25,CC[C@H]1CN(c2nc(N)c(-c3nnc(C)o3)nc2Cl)CCN1C1CCN([C@@H](C(=O)OC)c2ccc(Cl)cc2)CC1 [Compound 61]
8,< 25,CC[C@H]1CN(c2nc(N)c(-c3nnc(C)o3)nc2Cl)CCN1C1CCN([C@H](CO)c2ccc(Cl)cc2)CC1 [Compound 62]
9,< 25,CC[C@H]1CN(c2ncc(-c3nnc(C)o3)nc2C)CCN1C1CCN(C(=O)c2ccc(OC(F)(F)F)cc2)CC1 [Compound 65]
10,< 25,CC[C@H]1CN(c2ncc(-c3nnc(N)[nH]3)nc2Cl)CCN1C1CCN(C(=O)c2ccc(Cl)cc2)CC1 [Compound 66]
11,< 25,CC[C@H]1CN(c2nc(N)c(-c3nnc(CO)o3)nc2Cl)CCN1C1CCN([C@H](CO)c2ccc(Cl)cc2)CC1 [Compound 69]
12,25 to 100,CC[C@H]1CN(c2nc(N)c(-c3nnc(N)o3)nc2Cl)CCN1C1CCN(C(=O)c2ccc(OC(F)(F)F)cc2)CC1 [Compound 76]
13,25 to 100,CC[C@H]1CN(c2nc(N)c(-c3nnc(C(C)(C)O)o3)nc2Cl)CCN1C1CCN(C(=O)c2ccc(Cl)cc2)CC1 [Compound 78]
14,> 100,CC[C@H]1CN(c2nc(N)c(-c3nnc(OC)o3)nc2Cl)CCN1C1CCN(C(=O)c2ccc(Cl)nc2N)CC1 [Compound 79]
15,> 100,CC[C@H]1CN(c2nc(N)c(-c3nnc(C)o3)nc2Cl)CCN1C1CCN([C@H](C(=O)OC)c2ccc(Cl)cc2)CC1 [Compound 83]
16,> 100,CC[C@H]1CN(c2nc(N)c(-c3nc(N)no3)nc2Cl)CCN1C1CCN(C(=O)c2ccc(Cl)nc2N)CC1 [Compound 84]
17,> 100,CC[C@H]1CN(c2nc(N)c(-c3nnc(CO)o3)nc2Cl)CCN1C1CCN([C@H](C(=O)OC)c2ccc(Cl)cc2)CC1 [Compound 85]
18,> 100,CC[C@H]1CN(c2nc(N)c(-c3nnc(C(=O)NC4CC4)o3)nc2Cl)CCN1C1CCN(C(=O)c2ccc(Cl)cc2)CC1 [Compound 88]
19,< 25,CCNc1nnc(-c2cnc(N3C[C@H](CC)N(C4CCN(C(=O)c5ccc(Cl)cc5)CC4)C[C@H]3C)c(C)n2)o1 [Compound 96]
